In brackets after ≈: the same amount, converted by molar mass. Several values for one entry are separate records, joined by “and”; a condition that tells them apart may be missing. Equal values may be shown once.
Legend:
M. tuberculosis H37Rv = test: microbe, parasite or virus in culture; type: cell-based; settings: Mycobacterium tuberculosis, control drugs at critical concentrations
M. tuberculosis MS-115 = test: microbe, parasite or virus in culture; type: cell-based; settings: Mycobacterium tuberculosis, MS115, read-out: M. Tuberculosis MS-115 MIC
[1] = system: T. b. brucei strain Lister 427 (s427-WT); test: resazurin EC50 assay, T. b. brucei wild-type bloodstream forms; type: cell-based, Trypanosoma brucei brucei; settings: 48 h + 24 h resazurin, average and SEM, at least three determinations, NE = no effect on cell viability at 100 µM; for EC50: Trypanosoma brucei, 72 h
T. brucei B48 = test: microbe, parasite or virus in culture; type: cell-based, Trypanosoma brucei brucei; settings: for EC50: Trypanosoma brucei, read-out: T. Brucei, EC50, B48
T. brucei 2T1 PYR6-5 −/− = test: microbe, parasite or virus in culture; type: cell-based, Trypanosoma brucei brucei; settings: for EC50: Trypanosoma brucei, read-out: T. Brucei, EC50, 2T1 PYR6-5 −/−
Tbb-5FURes = test: microbe, parasite or virus in culture; type: cell-based, Trypanosoma brucei brucei; settings: for EC50: Trypanosoma brucei, read-out: T. Brucei, EC50, Tbb-5FURes
U-937 cells = test: U-937 cytotoxicity (XTT); type: cell-based; settings: 6 days incubation
Experimental: The U-937 cells used in the cytotoxicity evaluation were obtained from the AIDS Research and Reference Program. The cells were cultured as indicated by the supplier in RPMI-1640 supplemented with 10% heat inactivated FBS, 1% penicillin/streptomycin solution, and 1% L-glutamine.
U-937 cells plated at 2.5 × 10^3 cells/well in a volume of 100 µL were incubated with serially diluted test compounds in a volume of 100 µL for 6 days at 37 °C/5% CO2. Following the incubation, the cells were stained by adding 50 μL tetrazolium dye XTT (Sigma) solution at 5 mg/mL to determine cellular viability and read at 460/650 nm on a spectrophotometer. Toxicity values were calculated using linear regression analysis.

[2] = system: M. tuberculosis ATCC 25,177 (H37Ra); test: microbe, parasite or virus in culture; type: cell-based, Mycobacterium tuberculosis; settings: for MIC: Mycobacterium tuberculosis, read-out: M. Tuberculosis 25,177 MIC
M. smegmatis 700,084 = type: cell-based, Mycobacterium smegmatis; settings: tested up to 250 µM
[3] = system: L. mexicana 5FURes (Lmex5FURes); test: microbe, parasite or virus in culture; settings: Leishmania mexicana, read-out: L. Mexicana 5FUR, EC50
Experimental: (§1) Promastigotes of Leishmania mexicana strain MNY/BZ/62/M379 was cultured in a minimal essential medium, HO-MEMO-MEME, supplemented with 10% FBS and 1% of a penicillin/streptomycin solution (Gibco) as described previously [39] at 25 °C. The L. mexicana 5FURes strain was the same strain but adapted in vitro to high levels of 5FU exactly as described for T. brucei [12].
(§2) The resazurin assay for L. mexicana promastigotes was performed exactly as for T. b. brucei, except that incubation times of 72 and 48 h were used before and after the addition of resazurin, respectively, due to the slower metabolism of the dye by Leishmania promastigotes [42].

T. vaginalis strain G3 = test: resorufin-based EC50 assay, T. vaginalis; settings: Trichomonas vaginalis, read-out: Trichomonas Vaginalis, EC50
Experimental: The standard metronidazole-susceptible T. vaginalis strain G3was originally obtained from Jeremy Mottram (University of York, UK) and cultured in a modification of Diamond′s medium supplemented with 10% horse serum with a composition as described [40] at 37 °C under anaerobic conditions. Cultures were passaged daily.
Drugs were tested on T. vaginalis using a resorufin-based assay that we developed [40, 43]. The assay is based on the principle that live T. vaginalis trophozoites are, almost uniquely, able to reduce fluorescent, pink resorufin to non-fluorescent, colorless dihydro-resorufin. This conversion was measured as a dose-dependent increase in fluorescence (with dead cells unable to metabolize the fluorophore; λexc 544 nm, λem 599 nm), resulting in a sigmoid curve with variable slope that yielded EC50 values (Prism 6.0). Plates contained 11 doubling dilutions (1 row) and no-drug control for each compound starting at 100 µM under anaerobic conditions as described [40, 43]. Fluorescence was determined in a PheraStar plate reader (BMG Labtech).

[4] = system: Staphylococcus aureus NRS384; test: microbe, parasite or virus in culture; type: cell-based; settings: NRS384, read-out: extrapolated IC50, growth of S. aureus NRS384
[5] = system: L. mexicana WT promastigotes (strain MNY/BZ/62/M379); test: resazurin EC50 assay, L. mexicana promastigotes wild-type; settings: 72 h + 48 h resazurin, average and SEM, NE = no effect on cell viability at 100 µM
Experimental: as §1, §2

[6] = system: L. mexicana 5FURes (Lmex5FURes); settings: differences in EC50 between wild-type and 5FU-resistant L. mexicana
Experimental: as §1, §2

Row | SMILES | MIC (M. tuberculosis H37Rv) | EC50 [1] | EC50 (T. brucei B48) | EC50 (T. brucei 2T1 PYR6-5 −/−) | EC50 (Tbb-5FURes) | U-937 Cells TC50 (U-937 cells) | MIC [2] | EC50 [3] | EC50 (T. vaginalis strain G3) | other results
1 | C[C@H]1COc2c(N3CCN(C)CC3)c(F)cc3c(=O)c(C(=O)O)cn1c23 [Levofloxacin, reference compound] | 1.5 µg/mL (≈ 4.15 µM) |  |  |  |  |  |  |  |  | MIC (M. tuberculosis MS-115): 1.5 µg/mL (≈ 4.15 µM)
2 | CC(C)(C)c1ccc(C#Cc2cn([C@H]3C=C[C@@H](O)C3)c(=O)n([C@H]3C=C[C@@H](O)C3)c2=O)cc1 [Compound 7, 1-[4′-Hydroxy-2′-cyclopenten-1′-yl]-3-(4′′-hydroxy-2′′-cyclopent-en-1′′-yl)-5-(4-tertbutylphenynylethenyl)uracil] | > 50 µg/mL | ~8 µM | 10.8 ± 0.6 µM | 14.7 ± 0.4 µM | 12.6 ± 1.4 µM | 22.5 µM | 62.5 µM and 27 µg/mL | 45.3 ± 2.2 µM | 52.8 ± 0.007 µM | concentration completely inhibiting growth of M. smegmatis (M. smegmatis 700,084): 250 µM
3 | CCCCCc1ccc(C#Cc2cn([C@H]3C=C[C@@H](O)C3)c(=O)n([C@H]3C=C[C@@H](O)C3)c2=O)cc1 [Compound 8] | > 50 µg/mL | ~8 µM | 11 ± 0.6 µM | 15.4 ± 0.7 µM | 12 ± 1.2 µM | 17.3 µM | 31 µM and 13.9 µg/mL | 27.5 ± 2.3 µM | 36.9 ± 0.18 µM | concentration completely inhibiting growth of M. smegmatis (M. smegmatis 700,084): 250 µM
4 | CCOC(=O)C#Cc1cn([C@H]2C=C[C@@H](O)C2)c(=O)n([C@H]2C=C[C@@H](O)C2)c1=O [Compound 11, 1-[4′-Hydroxy-2′-cyclopenten-1′-yl]-3-(4′′-hydroxy-2′′-cyclopent-en-1′′-yl)-5-(ethyloxycarbonylpropynyl)uracil] |  | > 100 µM | > 100 µM | > 100 µM | > 100 µM | 21.6 µM | 1000 µM and 372 µg/mL | > 100 µM | 53.8 ± 0.74 µM | T. Brucei, EC50, S427-WT [1]: little or no activity at the highest concentration tested; IC50 [4]: ~100 µM
5 | Cc1ncc([N+](=O)[O-])n1CCO [Metronidazole, reference compound] |  |  |  |  |  |  |  |  | 0.53 ± 0.1 µM | 
6 | NNC(=O)c1ccncc1 [Isoniazid, reference compound] | 0.1 µg/mL (≈ 0.729 µM) |  |  |  |  |  |  |  |  | MIC (M. tuberculosis MS-115): > 100 µg/mL
7 | CCCCCCCCC#Cc1cn([C@H]2C=C[C@@H](O)C2)c(=O)n([C@H]2C=C[C@@H](O)C2)c1=O [Compound 3, 1-[4′-Hydroxy-2′-cyclopenten-1′-yl]-3-(4′′-hydroxy-2′′-cyclopent-en-1′′-yl)-5-decynyluracil] | 50 µg/mL (≈ 121 µM) | ~13 µM | 14.7 ± 0.2 µM | 17.1 ± 1.2 µM | 19.9 ± 0.7 µM | 2.2 µM | 31 µM and 12.8 µg/mL | 25.8 ± 0.4 µM | 32 ± 0.001 µM | MIC (M. tuberculosis MS-115): 50 µg/mL (≈ 121 µM)
8 | N=C(N)c1ccc(OCCCCCOc2ccc(C(=N)N)cc2)cc1 [Pentamidine, reference compound] |  | 0.0032 ± 0.0004 µM | 0.71 ± 0.03 µM | 0.0031 ± 0.0004 µM | 0.0034 ± 0.0004 µM |  |  | 1.63 ± 0.18 µM |  | fold resistance, B48 versus wild-type (T. brucei B48; higher EC50 against multi-drug resistant strain B48): 219 fold
9 | O=c1c(C#CCO)cn([C@H]2C=C[C@@H](O)C2)c(=O)n1[C@H]1C=C[C@@H](O)C1 [Compound 9, 1-[4′-Hydroxy-2′-cyclopenten-1′-yl]-3-(4′′-hydroxy-2′′-cyclopent-en-1′′-yl)-5-(hydroxypropynyl)uracil] |  | 66.8 ± 6.6 µM | 76.8 ± 4.4 µM | 59.9 ± 1 µM | 74.9 ± 3.5 µM | >100 µM | 1000 µM and 330 µg/mL | > 100 µM | 84.8 ± 0.004 µM | L. Mexicana WT, EC50 [5]: did not show any antileishmanial activity at all
10 | CCCCCCCCCc1ccc(OCCOCCOCCOCCOCCOCCOCCOCCOCCO)cc1 [Compound N9, Nonoxynol-9, reference compound] |  |  |  |  |  |  |  |  |  | U-937 Cells TC50 (U-937 cells; positive control): 6.5 µg/mL; U-937 Cells TC50 (U-937 cells; positive control, listed as Nonoxynol-9): toxic at the expected concentration
11 | NC[C@H]1O[C@H](O[C@H]2[C@H](O)[C@@H](O[C@H]3O[C@H](CO)[C@@H](O)[C@H](N)[C@H]3O)[C@H](N)C[C@@H]2N)[C@H](O)[C@@H](O)[C@@H]1O [Kanamycin, reference compound] |  |  |  |  |  |  |  |  |  | M. Tuberculosis 25,177 MIC [2]: 6.5 µM and 3.13 µg/mL
12 | CCCCCCC#Cc1cn([C@H]2C=C[C@@H](O)C2)c(=O)n([C@H]2C=C[C@@H](O)C2)c1=O [Compound 4, 1-[4′-Hydroxy-2′-cyclopenten-1′-yl]-3-(4′′-hydroxy-2′′-cyclopent-en-1′′-yl)-5-octynyluracil] | > 50 µg/mL | ~13 µM | 17.7 ± 1 µM | 17.5 ± 1.2 µM | 24.9 ± 0.5 µM | 73.8 µM | 31 µM and 11.9 µg/mL | 47.3 ± 0.4 µM | 54.1 ± 0.002 µM | 
13 | O=c1[nH]cc(F)c(=O)[nH]1 [5-Fluorouracil, reference compound] |  | 87 ± 6.4 µM | 101 ± 7 µM | 2.33 ± 0.35 µM | 2500 ± 76 µM |  |  | 3520 ± 440 µM |  | fold difference in EC50, PYR6-5 −/− versus wild-type (T. brucei 2T1 PYR6-5 −/−; sensitization for 5FU, reduction in trypanocidal activity for test compounds): 37.4 fold; fold difference in EC50, 5FURes versus wild-type (Tbb-5FURes; resistance to 5FU, reduction in trypanocidal activity for test compounds): 28.7 fold; fold resistance, Lmex5FURes versus wild-type [6]: > 400 fold
14 | O=c1c(C#Cc2ccccc2)cn([C@H]2C=C[C@@H](O)C2)c(=O)n1[C@H]1C=C[C@@H](O)C1 [Compound 6] |  | > 100 µM | > 100 µM | > 100 µM | > 100 µM | 166.2 µM | 500 µM and 188 µg/mL | > 100 µM | 70.2 ± 0.06 µM | 
15 | CCCC#Cc1cn([C@H]2C=C[C@@H](O)C2)c(=O)n([C@H]2C=C[C@@H](O)C2)c1=O [Compound 5, 1-[4′-Hydroxy-2′-cyclopenten-1′-yl]-3-(4′′-hydroxy-2′′-cyclopent-en-1′′-yl)-5-pentynyluracil] |  | > 100 µM | > 100 µM | > 100 µM | > 100 µM | 88.5 µM | > 1000 µM and > 342 µg/mL | > 100 µM | 73.5 ± 0.08 µM | 
16 | O=C(NCC#Cc1cn([C@H]2C=C[C@@H](O)C2)c(=O)n([C@H]2C=C[C@@H](O)C2)c1=O)C(F)(F)F [Compound 10, 1-[4′-Hydroxy-2′-cyclopenten-1′-yl]-3-(4′′-hydroxy-2′′-cyclopent-en-1′′-yl)-5-(trifluoroacetamidepropynyl)uracil] |  | > 100 µM | > 100 µM | > 100 µM | > 100 µM | 78.0 µM | > 1000 µM and > 425 µg/mL | > 100 µM | 69.2 ± 0.05 µM | T. Brucei, EC50, S427-WT [1]: little or no activity at the highest concentration tested; IC50 [4]: ~100 µM
17 | CCCCCCCCCCC#Cc1cn([C@H]2C=C[C@@H](O)C2)c(=O)n([C@H]2C=C[C@@H](O)C2)c1=O [Compound 2, 1-[4′-Hydroxy-2′-cyclopenten-1′-yl]-3-(4′′-hydroxy-2′′-cyclopent-en-1′′-yl)-5-dodecynyluracil] | > 50 µg/mL | 3.1 µM | 4 ± 0.4 µM | 5.5 ± 0.5 µM | 5.2 ± 0.6 µM | 22.1 µM | 31 µM and 13.6 µg/mL | 51.1 ± 0.6 µM | 48.9 ± 0.05 µM | 
18 | CO[C@H]1/C=C/O[C@@]2(C)Oc3c(C)c(O)c4c(O)c(c(/C=N/N5CCN(C)CC5)c(O)c4c3C2=O)NC(=O)/C(C)=C\C=C\[C@H](C)[C@H](O)[C@@H](C)[C@@H](O)[C@@H](C)[C@H](OC(C)=O)[C@@H]1C [Rifampicin, reference compound] | 1 µg/mL (≈ 1.22 µM) |  |  |  |  |  | 0.19 µM and 0.16 µg/mL |  |  | MIC (M. tuberculosis MS-115): > 50 µg/mL
